Assay results from patent US20080293746A1 (priority 2007, published 2008).

Tests used:
[1] = system: CCI-induced static allodynia; assay: Chronic constriction injury (CCI) rat model of neuropathic pain, assessment of static allodynia (von Frey hairs, paw withdrawal threshold); type: in vivo
Protocol: Animals: Male Sprague Dawley rats (150-250 g at the time of surgery), obtained from Charles River, (Manston, Kent, U.K.) were housed in groups of 3. All animals were kept under a 12 hour light/dark cycle (lights on at 07 h 00 min) with food and water ad libitum. All experiments were carried out by an observer blind to the treatments and in accordance with the Home Office Animals (Scientific Procedures) Act 1986.
The CCI of sciatic nerve was performed as previously described by Bennett and Xie (Bennett G J, Xie Y K. A peripheral mononeuropathy in rat that produces disorders of pain sensation like those seen in man. Pain: 33:87-107, 1988). Animals were anaesthetised with a 2% isofluorane/O2 mixture. The right hind thigh was shaved and swabbed with 1% iodine. Animals were then transferred to a homeothermic blanket for the duration of the procedure and anaesthesia maintained during surgery via a nose cone. The skin was cut along the line of the thighbone and the common sciatic nerve was exposed Four ligatures (4-0 silk) were tied loosely around the nerve, 1 cm proximally to the trifurcation, with approx 1 mm spacing. The incision was closed in layers.
Animals were habituated to wire bottom test cages prior to the assessment of allodynia. Static allodynia was evaluated by application of calibrated von Frey hairs (Stoelting, Wood Dale, Ill., USA.) in ascending order of force (0.8, 1, 1.4, 2, 4, 6, 8, 10, 15 and 26 grams) to the plantar surface of hind paws. Each von Frey hair was applied to the paw for a maximum of 6 seconds, or until a withdrawal response occurred. Once a withdrawal response to a von Frey hair was established, the paw was re-tested, starting with the filament below the one that produced a withdrawal, and subsequently with the remaining filaments in descending force sequence until no withdrawal occurred. The highest force of 26 g lifted the paw as well as eliciting a response, thus represented the cut off point. Each animal had both hind paws tested in this manner. The lowest amount of force required to elicit a response was recorded as paw withdrawal threshold (PWT) in grams. Static allodynia was defined as present if animals responded to a stimulus of, or less than, 4 g, which is innocuous in naive rats (Field M J, Bramwell S, Hughes J, Singh L. Detection of static and dynamic components of mechanical allodynia in rat models of neuropathic pain: are they signalled by distinct primary sensory neurones? Pain, 1999; 83:303-11).

[2] = Free plasma concentrations in the rat CCI studies; settings: Sprague Dawley; for concentration at 2.5 h: in vivo
Excerpt: It is important to ascertain whether any concluded synergy observed in animals or man is due solely to pharmacokinetic interactions.

clinical = settings: human, in vivo, po
Excerpt: (§1) The pharmacokinetics of sildenafil after oral tablet administration have been extensively studied in healthy volunteers. The pharmacokinetics of 1-(2-ethoxyethyl)-5-[ethyl(methyl)amino]-N-mesyl-7-[(4-methyl-2-pyridyl)amino]-1H-pyrazolo[4,3-o]pyrimidine-3-carboxamide have been recently studied in several healthy volunteer studies.

[3] = human, in vivo, po
Excerpt: as §1

[4] = oral dosing, CCI-induced static allodynia, rat (FIG. 1)

SMILES	effect on any allodynia endpoint ([1]; compound alone, oral dosing at 0.1 to 1 mg/kg (FIG. 2))	concentration at 1.3 h ([2]; plasma, oral, 1 mg/kg)	concentration at 4.3 h ([2]; plasma, oral, 1 mg/kg)	half-life (clinical)	dose at which a full effect is achieved [1, 4]	minimum effective dose (MED) [1, 4]	effect on static allodynia endpoints ([1]; pregabalin alone 10 mg/kg, 2 hours after dosing (FIG. 3))	concentration at 2.5 h ([2]; 3 mg/kg)	concentration at 2.5 h ([2]; 20 mg/kg)	steady state peak to trough ratio of plasma concentration time profile [3]
CCOCCn1nc(C(=O)NS(C)(=O)=O)c2nc(N(C)CC)nc(Nc3cc(C)ccn3)c21	no effect observed	≤ 0.0102 µM	≤ 0.0161 µM	10 to 15 h	–	–	–	–	–	–
CC(C)C[C@H](CN)CC(=O)O [pregabalin, (S)-(+)-4-amino-3-(2-methylpropyl)butanoic acid]	–	–	–	–	20 mg/kg	3 mg/kg	partially reversed	17.8 µM	89.8 µM	–
CCCc1nn(C)c2c(=O)[nH]c(-c3cc(S(=O)(=O)N4CCN(C)CC4)ccc3OCC)nc12 [sildenafil, 5-[2-ethoxy-5-(4-methyl-1-piperazinyl-sulphonyl)phenyl]-1-methyl-3-n-propyl-1,6-dihydro-7H-pyrazolo[4,3-d]pyrimidin-7-one]	–	–	–	4 h	–	–	–	–	–	~4 fold
